{"source": "PubChem BioAssay AID1259407", "about": "(Chemical Carcinogenesis Research Information System (CCRIS), 2018)", "test_system": "CCRIS mutagenicity, Ames/micronucleus/aberration tests", "assay": "CCRIS mutagenicity studies", "key": {"[1]": {"conditions": "Test System: AMES SALMONELLA TYPHIMURIUM, Strain/Indicator: TA97, Metabolic Activation: NONE, Method: STANDARD PLATE"}, "[2]": {"conditions": "Test System: AMES SALMONELLA TYPHIMURIUM, Strain/Indicator: TA98, Metabolic Activation: NONE, Method: STANDARD PLATE"}, "[3]": {"conditions": "Test System: AMES SALMONELLA TYPHIMURIUM, Strain/Indicator: TA98, Metabolic Activation: RAT, LIVER, S-9, AROCLOR 1254, Method: STANDARD PLATE"}, "[4]": {"conditions": "Test System: AMES SALMONELLA TYPHIMURIUM, Strain/Indicator: TA100, Metabolic Activation: NONE, Method: STANDARD PLATE"}, "[5]": {"conditions": "Test System: AMES SALMONELLA TYPHIMURIUM, Strain/Indicator: TA100, Metabolic Activation: RAT, LIVER, S-9, AROCLOR 1254, Method: STANDARD PLATE"}, "[6]": {"conditions": "Test System: AMES SALMONELLA TYPHIMURIUM, Strain/Indicator: TA102, Metabolic Activation: NONE, Method: STANDARD PLATE"}}, "note": "Activity calls are given as the source filed them. No rule for the calls is given here.", "data": [{"compound": "CC1(C)C(C=C(Cl)Cl)C1C(=O)OC(C#N)c1cccc(Oc2ccccc2)c1", "note": "(stereo not drawn)", "values": [{"measurement": "mutagenic call", "setting": "Test System: AMES SALMONELLA TYPHIMURIUM, Strain/Indicator: TA97, Metabolic Activation: BARLEY, HOMOGENATES, Method: STANDARD PLATE", "result": "inactive; negative"}, {"measurement": "mutagenic call", "setting": "[1]", "result": "inactive; negative"}, {"measurement": "mutagenic call", "setting": "Test System: AMES SALMONELLA TYPHIMURIUM, Strain/Indicator: TA97, Metabolic Activation: RAT, LIVER, S-9, DELOR 103, Method: STANDARD PLATE", "result": "inactive; negative"}, {"measurement": "mutagenic call", "setting": "Test System: AMES SALMONELLA TYPHIMURIUM, Strain/Indicator: TA98, Metabolic Activation: BARLEY, HOMOGENATES, Method: STANDARD PLATE", "result": "inactive; negative"}, {"measurement": "mutagenic call", "setting": "[2]", "result": "inactive; negative"}, {"measurement": "mutagenic call", "setting": "[3]", "result": "inactive; negative"}, {"measurement": "mutagenic call", "setting": "Test System: AMES SALMONELLA TYPHIMURIUM, Strain/Indicator: TA98, Metabolic Activation: RAT, LIVER, S-9, DELOR 103, Method: STANDARD PLATE", "result": "inactive; negative"}, {"measurement": "mutagenic call", "setting": "Test System: AMES SALMONELLA TYPHIMURIUM, Strain/Indicator: TA100, Metabolic Activation: BARLEY, HOMOGENATES, Method: STANDARD PLATE", "result": "inactive; negative"}, {"measurement": "mutagenic call", "setting": "[4]", "result": "inactive; negative"}, {"measurement": "mutagenic call", "setting": "[5]", "result": "inactive; negative"}, {"measurement": "mutagenic call", "setting": "Test System: AMES SALMONELLA TYPHIMURIUM, Strain/Indicator: TA100, Metabolic Activation: RAT, LIVER, S-9, DELOR 103, Method: STANDARD PLATE", "result": "inactive; negative"}, {"measurement": "mutagenic call", "setting": "Test System: AMES SALMONELLA TYPHIMURIUM, Strain/Indicator: TA1535, Metabolic Activation: BARLEY, HOMOGENATES, Method: STANDARD PLATE", "result": "inactive; negative"}, {"measurement": "mutagenic call", "setting": "Test System: AMES SALMONELLA TYPHIMURIUM, Strain/Indicator: TA1535, Metabolic Activation: NONE, Method: STANDARD PLATE", "result": "inactive; negative"}, {"measurement": "mutagenic call", "setting": "Test System: AMES SALMONELLA TYPHIMURIUM, Strain/Indicator: TA1535, Metabolic Activation: RAT, LIVER, S-9, AROCLOR 1254, Method: STANDARD PLATE", "result": "inactive; negative"}, {"measurement": "mutagenic call", "setting": "Test System: AMES SALMONELLA TYPHIMURIUM, Strain/Indicator: TA1535, Metabolic Activation: RAT, LIVER, S-9, DELOR 103, Method: STANDARD PLATE", "result": "inactive; negative"}, {"measurement": "mutagenic call", "setting": "Test System: AMES SALMONELLA TYPHIMURIUM, Strain/Indicator: TA1537, Metabolic Activation: NONE, Method: STANDARD PLATE", "result": "inactive; negative"}, {"measurement": "mutagenic call", "setting": "Test System: AMES SALMONELLA TYPHIMURIUM, Strain/Indicator: TA1537, Metabolic Activation: RAT, LIVER, S-9, AROCLOR 1254, Method: STANDARD PLATE", "result": "inactive; negative"}, {"measurement": "mutagenic call", "setting": "Test System: AMES SALMONELLA TYPHIMURIUM, Strain/Indicator: TA1538, Metabolic Activation: NONE, Method: STANDARD PLATE", "result": "inactive; negative"}, {"measurement": "mutagenic call", "setting": "Test System: AMES SALMONELLA TYPHIMURIUM, Strain/Indicator: TA1538, Metabolic Activation: RAT, LIVER, S-9, DELOR 103, Method: STANDARD PLATE", "result": "inactive; negative"}, {"measurement": "mutagenic call", "setting": "Test System: CHINESE HAMSTER V-79, Strain/Indicator: V-79/6-THIOGUANINE, Metabolic Activation: NONE, Method: STANDARD PLATE", "result": "inactive; negative"}, {"measurement": "mutagenic call", "setting": "Test System: CHINESE HAMSTER V-79, Strain/Indicator: V-79/6-THIOGUANINE, Metabolic Activation: RAT HEPATOCYTES, Method: STANDARD PLATE", "result": "inactive; negative"}, {"measurement": "mutagenic call", "setting": "Test System: CHINESE HAMSTER V-79, Strain/Indicator: V-79/OUABAIN, Metabolic Activation: NONE, Method: STANDARD PLATE", "result": "inactive; negative"}, {"measurement": "mutagenic call", "setting": "Test System: CHINESE HAMSTER V-79, Strain/Indicator: V-79/OUABAIN, Metabolic Activation: RAT HEPATOCYTES, Method: STANDARD PLATE", "result": "inactive; negative"}, {"measurement": "mutagenic call", "setting": "Test System: E. COLI, Strain/Indicator: WP2, Metabolic Activation: NONE, Method: STANDARD PLATE", "result": "inactive; negative"}, {"measurement": "mutagenic call", "setting": "Test System: E. COLI, Strain/Indicator: WP2, Metabolic Activation: RAT, LIVER, S-9, AROCLOR 1254, Method: STANDARD PLATE", "result": "inactive; negative"}]}, {"compound": "Nc1ccc(CO)c([N+](=O)[O-])c1", "values": [{"measurement": "mutagenic call", "setting": "Test System: AMES SALMONELLA TYPHIMURIUM, Strain/Indicator: TA98, Metabolic Activation: NONE, Method: PREINCUBATION", "result": "active; positive"}, {"measurement": "mutagenic call", "setting": "Test System: AMES SALMONELLA TYPHIMURIUM, Strain/Indicator: TA98, Metabolic Activation: RAT, LIVER, S-9, PHENOBARBITAL AND 5,6-BENZOFLAVONE, Method: PREINCUBATION", "result": "active; positive"}, {"measurement": "mutagenic call", "setting": "Test System: AMES SALMONELLA TYPHIMURIUM, Strain/Indicator: TA100, Metabolic Activation: NONE, Method: PREINCUBATION", "result": "active; positive"}, {"measurement": "mutagenic call", "setting": "Test System: AMES SALMONELLA TYPHIMURIUM, Strain/Indicator: TA100, Metabolic Activation: RAT, LIVER, S-9, PHENOBARBITAL AND 5,6-BENZOFLAVONE, Method: PREINCUBATION", "result": "active; positive"}]}, {"compound": "O=[N+]([O-])c1cc2[nH]c3ccc4ccccc4c3c2c2ccc(O)cc12", "values": [{"measurement": "mutagenic call", "setting": "[2]", "result": "inactive; negative"}, {"measurement": "mutagenic call", "setting": "Test System: AMES SALMONELLA TYPHIMURIUM, Strain/Indicator: TA98, Metabolic Activation: RAT, LIVER, S-9, 3-METHYLCHOLANTHRENE, Method: STANDARD PLATE", "result": "active; positive"}, {"measurement": "mutagenic call", "setting": "[4]", "result": "active; positive"}, {"measurement": "mutagenic call", "setting": "Test System: AMES SALMONELLA TYPHIMURIUM, Strain/Indicator: TA100, Metabolic Activation: RAT, LIVER, S-9, 3-METHYLCHOLANTHRENE, Method: STANDARD PLATE", "result": "active; positive"}]}, {"compound": "OCC(O)CN1CCN(c2ccccc2)CC1", "note": "(stereo not drawn)", "values": [{"measurement": "mutagenic call", "setting": "Test System: CHINESE HAMSTER V-79, Strain/Indicator: V-79/6-THIOGUANINE, Metabolic Activation: NONE", "result": "inactive; negative"}, {"measurement": "mutagenic call", "setting": "Test System: CHINESE HAMSTER V-79, Strain/Indicator: V-79/6-THIOGUANINE, Metabolic Activation: S-9", "result": "inactive; negative"}]}, {"compound": "CN1CCN(c2ccc3nc(CCCc4ccc5nc(-c6ccc(N(CCCl)CCCl)cc6)[nH]c5c4)[nH]c3c2)CC1", "values": [{"measurement": "mutagenic call", "setting": "[2]", "result": "inactive; negative"}, {"measurement": "mutagenic call", "setting": "[4]", "result": "inactive; negative"}, {"measurement": "mutagenic call", "setting": "[6]", "result": "active; positive"}]}, {"compound": "CCOC(=O)c1[nH]c2ccccc2c1N=Cc1ccc(NC(C)=O)cc1", "values": [{"measurement": "mutagenic call", "setting": "[1]", "result": "active; positive"}, {"measurement": "mutagenic call", "setting": "Test System: AMES SALMONELLA TYPHIMURIUM, Strain/Indicator: TA97, Metabolic Activation: RAT, LIVER, S-9, AROCLOR 1254, Method: STANDARD PLATE", "result": "inactive; negative"}, {"measurement": "mutagenic call", "setting": "[2]", "result": "inactive; negative"}, {"measurement": "mutagenic call", "setting": "[3]", "result": "inactive; negative"}, {"measurement": "mutagenic call", "setting": "[4]", "result": "inactive; negative"}, {"measurement": "mutagenic call", "setting": "[5]", "result": "inactive; negative"}, {"measurement": "mutagenic call", "setting": "[6]", "result": "inactive; negative"}, {"measurement": "mutagenic call", "setting": "Test System: AMES SALMONELLA TYPHIMURIUM, Strain/Indicator: TA102, Metabolic Activation: RAT, LIVER, S-9, AROCLOR 1254, Method: STANDARD PLATE", "result": "inactive; negative"}]}, {"compound": "COc1c(C)c2c(c(O)c1C/C=C(\\C)CCC(=O)O)C(=O)OC2", "values": [{"measurement": "mutagenic call", "setting": "Test System: AMES SALMONELLA TYPHIMURIUM, Strain/Indicator: TA98, Metabolic Activation: RAT, LIVER, MICROSOMES, PHENOBARBITAL, Method: STANDARD PLATE", "result": "inactive; negative"}, {"measurement": "mutagenic call", "setting": "Test System: AMES SALMONELLA TYPHIMURIUM, Strain/Indicator: TA100, Metabolic Activation: RAT, LIVER, MICROSOMES, PHENOBARBITAL, Method: STANDARD PLATE", "result": "inactive; negative"}]}]}
